# Laboratory results reported in the supplement of paper PMC11208160.
# Assay: recombinant barcode read abundance after kanamycin selection (control-corrected) (log10(CPM+1)); higher = more efficient recombination; sequences stand for … in AGTGCAGAGAAAATCGGCCAGTTTTCTCTGCCTGCAGTCCGCATGCCGT…AGATTTATGCAGCGGACTGCCTTTCTCCCAAAGTGATAAACCGGACAGTATCATGGACCGGTTTTCCCGGTAATCCGTATTTGCAAGGTTGGTTTCACT; site = the 11-nt target
# Outline: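 A vector carrying a T7-inducible recombinase and the last 73 bp of the bridge RNA received, by Gibson cloning, oligos encoding a promoter, target, barcode and the first 104 bridge RNA bases under J23119. The pooled constructs entered E. coli together with a donor plasmid by electroporation. Selection used chloramphenicol/ampicillin/kanamycin with 0.1 mM IPTG, with chloramphenicol/ampicillin LB agar as the control, each in two replicates. Recombination efficiency is the averaged, control-corrected counts-per-million of barcodes at recombinant junctions, reported as log10(CPM+1).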
# 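Also: IS621 recombinase and bridge RNA in Escherichia coli cells.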
row,Sequence,recombinant barcode read abundance (log10)
1,TGGCCCTCTTGGGTTCTAACCTGTTGCTT (site TGGCCCTCTTA),0.056
2,TGGCCGACTTGGGTTCTAACCTGTTGCAC (site TCGCAGACTGT),0.0415
3,TGGCCGACTTGGGTTCTAACCTGTTGCAC (site TGGCCGACTGT),1.65
4,TGGCCTGCTTGGGTTCTAACCTGTTGCCT (site TGGCCTGCTAG),0.868
5,TGGCCTGCTTGGGTTCTAACCTGTTGCCT (site TGGCGAGCTAG),0.176
6,TGGCTAGCTTGGGTTCTAACCTGTTGCAC (site CATTCGCCTAC),0.0401
7,TGGCTAGCTTGGGTTCTAACCTGTTGCAC (site TGGCTAGCTGT),1.77
8,TGGGACACTTGGGTTCTAACCTGTTGCCG (site AGGGACTCTCG),0.403
9,TGGGACACTTGGGTTCTAACCTGTTGCCG (site TGGGACACTCG),2.48
10,TGGGTCACTTGGGTTCTAACCTGTTGCTA (site GTTTAATCTAT),0.0621
11,TGGGTCACTTGGGTTCTAACCTGTTGCTA (site TGGGTCACTTA),2.07
12,TGGGTCCCTTGGGTTCTAACCTGTTGCGA (site AAATGTACTAG),0.252
13,TGGGTCCCTTGGGTTCTAACCTGTTGCGA (site TGGGTCCCTTC),3
14,TGGTATCCTTGGGTTCTAACCTGTTGCCT (site TGGTATACTAG),0.15
15,TGGTATCCTTGGGTTCTAACCTGTTGCCT (site TGGTATCCTAG),0.954
16,TGGTATCCTTGGGTTCTAACCTGTTGCCT (site TGGTATGCTAG),0.396
17,TGGTATCCTTGGGTTCTAACCTGTTGCCT (site TGGTATTCTAG),0.358
18,TGGTCGGCTTGGGTTCTAACCTGTTGCAC (site TAGTCAGCTGT),0.0913
19,TGGTCGGCTTGGGTTCTAACCTGTTGCAC (site TGGTCGGCTGT),0.385
20,TGGTGCGCTTGGGTTCTAACCTGTTGCCT (site TGGTACGCTAG),0.33
21,TGGTGCGCTTGGGTTCTAACCTGTTGCCT (site TGGTCCGCTAG),0.324
22,TGGTGCGCTTGGGTTCTAACCTGTTGCCT (site TGGTGCGCTAG),1.21

row,Sequence,recombinant barcode read abundance (log10)
1,TGGTGCGCTTGGGTTCTAACCTGTTGCCT (site TGGTTCGCTAG),0.0427
2,TGGTGTCCTTGGGTTCTAACCTGTTGCCA (site TCGAGTCCTTG),0.0738
3,TGGTGTCCTTGGGTTCTAACCTGTTGCCA (site TGGTGTCCTTG),0.473
4,TGGTGTCCTTGGGTTCTAACCTGTTGCCT (site TGGAGTCCTAG),0.32
5,TGGTGTCCTTGGGTTCTAACCTGTTGCCT (site TGGCGTCCTAG),0.279
6,TGGTGTCCTTGGGTTCTAACCTGTTGCCT (site TGGGGTCCTAG),0.158
7,TGGTGTCCTTGGGTTCTAACCTGTTGCCT (site TGGTGTCCTAG),1.58
8,TGGTTACCTTGGGTTCTAACCTGTTGCGG (site CACACGACTAA),0.0374
9,TGGTTACCTTGGGTTCTAACCTGTTGCGG (site TGGTTACCTCC),1.49
10,TGGTTGTCTTGGGTTCTAACCTGTTGCCT (site TGGCTGTCTAG),0.522
11,TGGTTGTCTTGGGTTCTAACCTGTTGCCT (site TGGTTGTCTAG),1.09
12,TGTACGACTTGGGTTCTAACCTGTTGCCT (site TGTACGACTAG),0.146
13,TGTACGACTTGGGTTCTAACCTGTTGCCT (site TGTACGTCTAA),0.0793
14,TGTACGACTTGGGTTCTAACCTGTTGCGG (site GAGTGTTCTAA),0.0347
15,TGTACGACTTGGGTTCTAACCTGTTGCGG (site TGTACGACTCC),0.7
16,TGTAGTACTTGGGTTCTAACCTGTTGCCT (site TGGAGTACTAA),0.0714
17,TGTAGTACTTGGGTTCTAACCTGTTGCCT (site TGTAGTACTAG),0.229
18,TGTATGACTTGGGTTCTAACCTGTTGCCT (site AGTATGACTAG),0.65
19,TGTATGACTTGGGTTCTAACCTGTTGCCT (site CGTATGACTAG),0.0259
20,TGTATGACTTGGGTTCTAACCTGTTGCCT (site GGTATGACTAG),0.263
21,TGTATGACTTGGGTTCTAACCTGTTGCCT (site TGTATGACTAG),0.46
22,TGTATGTCTTGGGTTCTAACCTGTTGCCT (site AGTATGTCTAG),0.0212

row,Sequence,recombinant barcode read abundance (log10)
1,TGTATGTCTTGGGTTCTAACCTGTTGCCT (site CGTATGTCTAG),0.529
2,TGTATGTCTTGGGTTCTAACCTGTTGCCT (site GGTATGTCTAG),0.402
3,TGTATGTCTTGGGTTCTAACCTGTTGCCT (site TGTATGTCTAG),0.0364
4,TGTCAACCTTGGGTTCTAACCTGTTGCGT (site TGTCAAACTAC),0.0902
5,TGTCAACCTTGGGTTCTAACCTGTTGCGT (site TGTCAACCTAC),1.02
6,TGTCAAGCTTGGGTTCTAACCTGTTGCCT (site TGTCAAACTAG),0.574
7,TGTCAAGCTTGGGTTCTAACCTGTTGCCT (site TGTCAACCTAG),0.045
8,TGTCAAGCTTGGGTTCTAACCTGTTGCCT (site TGTCAAGCTAG),0.46
9,TGTCAAGCTTGGGTTCTAACCTGTTGCCT (site TGTCAATCTAG),0.295
10,TGTCCACCTTGGGTTCTAACCTGTTGCCT (site AGTCCACCTAG),0.0595
11,TGTCCACCTTGGGTTCTAACCTGTTGCCT (site CGTCCACCTAG),0.267
12,TGTCCACCTTGGGTTCTAACCTGTTGCCT (site GGTCCACCTAG),0.165
13,TGTCCACCTTGGGTTCTAACCTGTTGCCT (site TGTCCACCTAG),0.623
14,TGTCGAGCTTGGGTTCTAACCTGTTGCGG (site TGTCGAGCTCC),0.977
15,TGTCGAGCTTGGGTTCTAACCTGTTGCGG (site TTCCGAGCTCC),0.00866
16,TGTCGGACTTGGGTTCTAACCTGTTGCAC (site TGTCGGACTAT),0.741
17,TGTCGGACTTGGGTTCTAACCTGTTGCAC (site TGTCGGACTCT),0.214
18,TGTCGGACTTGGGTTCTAACCTGTTGCAC (site TGTCGGACTGT),0.38
19,TGTCGGACTTGGGTTCTAACCTGTTGCAC (site TGTCGGACTTT),0.0148
20,TGTCGGCCTTGGGTTCTAACCTGTTGCTT (site CTATTTACTCC),0.107
21,TGTCGGCCTTGGGTTCTAACCTGTTGCTT (site TGTCGGCCTAA),0
22,TGTCTCCCTTGGGTTCTAACCTGTTGCTT (site TGTCTACCTTA),0.0416

row,Sequence,recombinant barcode read abundance (log10)
1,TGTCTCCCTTGGGTTCTAACCTGTTGCTT (site TGTCTCCCTAA),0.777
2,TGTGACACTTGGGTTCTAACCTGTTGCAA (site AACAGGCCTAG),0.121
3,TGTGACACTTGGGTTCTAACCTGTTGCAA (site TGTGACACTTT),1.54
4,TGTGAGTCTTGGGTTCTAACCTGTTGCCT (site TGTGAGTCTAA),0.0418
5,TGTGAGTCTTGGGTTCTAACCTGTTGCCT (site TGTGAGTCTAC),0.73
6,TGTGAGTCTTGGGTTCTAACCTGTTGCCT (site TGTGAGTCTAG),1.1
7,TGTGAGTCTTGGGTTCTAACCTGTTGCCT (site TGTGAGTCTAT),0.0543
8,TGTGAGTCTTGGGTTCTAACCTGTTGCTT (site TGTGAGTCTAA),0.549
9,TGTGAGTCTTGGGTTCTAACCTGTTGCTT (site TGTGAGTCTAC),0.0217
10,TGTGAGTCTTGGGTTCTAACCTGTTGCTT (site TGTGAGTCTAG),0.193
11,TGTGAGTCTTGGGTTCTAACCTGTTGCTT (site TGTGAGTCTAT),0.799
12,TGTGGGTCTTGGGTTCTAACCTGTTGCCT (site TATGGGTCTAG),0.0229
13,TGTGGGTCTTGGGTTCTAACCTGTTGCCT (site TGTGGGTCTAG),0.393
14,TGTGTCCCTTGGGTTCTAACCTGTTGCCG (site TGTCTCCCTCG),0.0681
15,TGTGTCCCTTGGGTTCTAACCTGTTGCCG (site TGTGTCCCTCG),1.1
16,TGTTAGCCTTGGGTTCTAACCTGTTGCCA (site GGTTAGCCTAG),0.0168
17,TGTTAGCCTTGGGTTCTAACCTGTTGCCA (site TGTTAGCCTTG),0.0869
18,TGTTAGCCTTGGGTTCTAACCTGTTGCCT (site GGCTAGCCTAG),0.0606
19,TGTTAGCCTTGGGTTCTAACCTGTTGCCT (site TGTTAGCCTAG),0.0878
20,TGTTGCACTTGGGTTCTAACCTGTTGCCT (site TGTTGCACTAG),0.0616
